Data from US10538498B2, “1,3,4-oxadiazole sulfonamide derivative compounds as histone deacetylase 6 inhibitor, and the pharmaceutical composition comprising the same” (Chong Kun Dang Pharmaceutical Corp., priority 2015, dated 2020).

Molecular target: T1, human recombinant HDAC6 (Homo sapiens, UniProt Q9UBN7)
T1 construct: purchased Calbiochem 382180
T1 sequence (Q9UBN7 1-1215): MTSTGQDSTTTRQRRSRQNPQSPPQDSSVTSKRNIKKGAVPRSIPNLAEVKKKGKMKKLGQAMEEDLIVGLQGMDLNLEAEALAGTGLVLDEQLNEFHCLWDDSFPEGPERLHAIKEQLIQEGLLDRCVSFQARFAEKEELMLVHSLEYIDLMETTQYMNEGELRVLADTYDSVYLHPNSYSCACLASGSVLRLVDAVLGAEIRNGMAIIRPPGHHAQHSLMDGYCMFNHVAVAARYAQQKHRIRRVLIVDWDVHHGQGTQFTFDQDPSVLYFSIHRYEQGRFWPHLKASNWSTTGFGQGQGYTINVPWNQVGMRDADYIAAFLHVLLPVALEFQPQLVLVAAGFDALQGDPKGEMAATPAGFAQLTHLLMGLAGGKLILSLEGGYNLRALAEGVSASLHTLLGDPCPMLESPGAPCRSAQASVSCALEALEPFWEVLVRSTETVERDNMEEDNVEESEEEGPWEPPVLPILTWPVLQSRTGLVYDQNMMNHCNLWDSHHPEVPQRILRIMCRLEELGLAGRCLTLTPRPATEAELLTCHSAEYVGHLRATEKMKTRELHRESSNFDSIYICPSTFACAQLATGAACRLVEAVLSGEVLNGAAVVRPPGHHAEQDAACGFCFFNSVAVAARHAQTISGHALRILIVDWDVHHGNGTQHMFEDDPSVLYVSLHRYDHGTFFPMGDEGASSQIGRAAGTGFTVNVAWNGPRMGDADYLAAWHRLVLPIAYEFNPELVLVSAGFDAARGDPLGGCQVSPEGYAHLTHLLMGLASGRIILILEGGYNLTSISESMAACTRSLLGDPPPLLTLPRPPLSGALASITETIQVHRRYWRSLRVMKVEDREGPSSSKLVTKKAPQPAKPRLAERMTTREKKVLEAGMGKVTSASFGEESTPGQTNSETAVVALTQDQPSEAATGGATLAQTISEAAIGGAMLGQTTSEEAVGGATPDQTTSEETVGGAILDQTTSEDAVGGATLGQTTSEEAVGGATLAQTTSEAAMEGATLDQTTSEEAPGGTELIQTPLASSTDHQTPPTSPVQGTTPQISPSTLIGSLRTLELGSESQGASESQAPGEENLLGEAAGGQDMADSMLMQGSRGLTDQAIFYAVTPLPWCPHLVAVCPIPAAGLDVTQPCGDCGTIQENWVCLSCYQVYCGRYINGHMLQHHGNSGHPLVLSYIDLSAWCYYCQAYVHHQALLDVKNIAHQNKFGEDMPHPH
Assay: HDAC6 enzyme activity inhibition assay (HDAC Fluorimetric Drug Discovery Kit)
Format: biochemical
Details: for HDAC6 selectivity (fold): HDAC1 vs HDAC6; for IC50: same protocol as the HDAC1 enzyme activity test
Experimental: In order to examine the HDAC6 selectivity of the compounds of formula I of the present invention by HDAC1 and HDAC6 enzymatic activity inhibition assays, an experiment was performed using a conventional substance as a control.
HDAC enzyme activity was measured using a HDAC Fluorimetric Drug Discovery Kit (BML-AK511, 516, Enzo Life Science). For the HDAC1 enzyme activity test, human recombinant HDAC1 (BML-SE456) was used as an enzyme source, and Fluor de Lys®-“SIRT1 (BNL-KI177) was used as a substrate. A 5-fold dilution of the compound was seeded into a 96-well plate, and then 0.3 μg of the enzyme and 10 μM of the substrate were added to each well of the plate and allowed to react at 30° C. for 60 minutes. Then, Fluor de Lys®-Developer II (BML-KI176) was added thereto and allowed to react for 30 minutes, after which the fluorescence value (Ex 360, Em 460) was measured using a multi-plate reader (Flexstation 3, Molecular Device). The HDAC6 enzyme was tested using human recombinant HDAC6 (382180) (Calbiochem) according to the same protocol as the HDAC1 enzyme activity test method. Based on the resulting values, each IC50 value was calculated using GraphPad Prism4.0 program.

HDAC6 selectivity (fold)	IC50 [nM]	SMILES
4167	24	O=S(=O)(c1cccnc1)N(Cc1ccc(-c2nnc(C(F)F)o2)cc1F)c1cccc(F)c1 [Compound 11225, N-(4-(5-(difluoromethyl)-1,3,4-oxadiazol-2-yl)-2-fluorobenzyl)-N-(3-fluorophenyl)pyridine-3-sulfonamide]
4348	23	CS(=O)(=O)N(Cc1ccc(-c2nnc(C(F)F)o2)cc1F)c1ccc2c(c1)OCO2 [Compound 11227, N-(benzo[d][1,3]dioxol-5-yl)-N-(4-(5-(difluoromethyl)-1,3,4-oxadiazol-2-yl)-2-fluorobenzyl)methanesulfonamide]
1176	85	O=S(=O)(C1CCCCC1)N(Cc1ccc(-c2nnc(C(F)F)o2)cc1F)c1ccccc1 [Compound 11229, N-(4-(5-(difluoromethyl)-1,3,4-oxadiazol-2-yl)-2-fluorobenzyl)-N-phenylcyclohexanesulfonamide]
3030	33	CCC(C)S(=O)(=O)N(Cc1ccc(-c2nnc(C(F)F)o2)cc1F)c1ccccc1 (stereo not shown) [Compound 11230, N-(4-(5-(difluoromethyl)-1,3,4-oxadiazol-2-yl)-2-fluorobenzyl)-N-phenylbutane-2-sulfonamide]
4545	22	COC(=O)CS(=O)(=O)N(Cc1ccc(-c2nnc(C(F)F)o2)cc1F)c1ccccc1 [Compound 11231, methyl 2-(N-(4-(5-(difluoromethyl)-1,3,4-oxadiazol-2-yl)-2-fluorobenzyl)-N-phenylsulfamoyl)acetate]
893	112	Cc1ccccc1N(Cc1ccc(-c2nnc(C(F)(F)F)o2)cc1F)S(C)(=O)=O [Compound 11248, N-(2-fluoro-4-(5-(trifluoromethyl)-1,3,4-oxadiazol-2-yl)benzyl)-N-(o-tolyl)methanesulfonamide]
2703	37	Cc1ccccc1N(Cc1ccc(-c2nnc(C(F)F)o2)cc1F)S(C)(=O)=O [Compound 11249, N-(4-(5-(difluoromethyl)-1,3,4-oxadiazol-2-yl)-2-fluorobenzyl)-N-(o-tolyl)methanesulfonamide]
1000	100	COc1ccccc1N(Cc1ccc(-c2nnc(C(F)(F)F)o2)cc1F)S(C)(=O)=O [Compound 11250, N-(2-fluoro-4-(5-(trifluoromethyl)-1,3,4-oxadiazol-2-yl)benzyl)-N-(2-methoxyphenyl)methanesulfonamide]
1563	64	COc1ccccc1N(Cc1ccc(-c2nnc(C(F)F)o2)cc1F)S(C)(=O)=O [Compound 11251, N-(4-(5-(difluoromethyl)-1,3,4-oxadiazol-2-yl)-2-fluorobenzyl)-N-(2-methoxyphenyl)methanesulfonamide]

Continued, molecule first:

SMILES	HDAC6 selectivity (fold)	IC50 [nM]
CS(=O)(=O)N(Cc1ccc(-c2nnc(C(F)(F)F)o2)cc1F)c1cccc(F)c1 [Compound 11181, N-(2-fluoro-4-(5-(trifluoromethyl)-1,3,4-oxadiazol-2-yl)benzyl)-N-(3-fluorophenyl)methanesulfonamide]	3030	33
CS(=O)(=O)N(Cc1ccc(-c2nnc(C(F)F)o2)cc1F)c1cccc(F)c1 [Compound 11182, N-(4-(5-(difluoromethyl)-1,3,4-oxadiazol-2-yl)-2-fluorobenzyl)-N-(3-fluorophenyl)methanesulfonamide]	5882	17
CS(=O)(=O)N(Cc1ccc(-c2nnc(C(F)(F)F)o2)c(F)c1)c1ccccc1 [Compound 11183, N-(3-fluoro-4-(5-(trifluoromethyl)-1,3,4-oxadiazol-2-yl)benzyl)-N-phenylmethanesulfonamide]	426	235
CS(=O)(=O)N(Cc1ccc(-c2nnc(C(F)F)o2)cc1)Cc1ccc(-c2nnc(C(F)F)o2)cc1 [Compound 11186, N,N-bis(4-(5-(difluoromethyl)-1,3,4-oxadiazol-2-yl)benzyl)methanesulfonamide]	433	231
CS(=O)(=O)N(Cc1ccc(-c2nnc(C(F)F)o2)cc1F)c1cccc(Cl)c1 [Compound 11191, N-(3-chlorophenyl)-N-(4-(5-(difluoromethyl)-1,3,4-oxadiazol-2-yl)-2-fluorobenzyl)methanesulfonamide]	5000	20
COc1ccc(N(Cc2ccc(-c3nnc(C(F)F)o3)cc2F)S(C)(=O)=O)cc1 [Compound 11193, N-(4-(5-(difluoromethyl)-1,3,4-oxadiazol-2-yl)-2-fluorobenzyl)-N-(4-methoxyphenyl)methanesulfonamide]	3704	27
CS(=O)(=O)N(Cc1ccc(-c2nnc(C(F)(F)F)o2)cc1F)c1cncnc1 [Compound 11194, N-(2-fluoro-4-(5-(trifluoromethyl)-1,3,4-oxadiazol-2-yl)benzyl)-N-(pyrimidin-5-yl)methanesulfonamide]	1538	65
CS(=O)(=O)N(Cc1ccc(-c2nnc(C(F)F)o2)cc1F)c1cncnc1 [Compound 11195, N-(4-(5-(difluoromethyl)-1,3,4-oxadiazol-2-yl)-2-fluorobenzyl)-N-(pyrimidin-5-yl)methanesulfonamide]	1563	64
CS(=O)(=O)N(Cc1ccc(-c2nnc(C(F)F)o2)cc1F)c1cccc(Br)c1 [Compound 11197, N-(3-bromophenyl)-N-(4-(5-(difluoromethyl)-1,3,4-oxadiazol-2-yl)-2-fluorobenzyl)methanesulfonamide]	6667	15
CS(=O)(=O)N(Cc1ccc(-c2nnc(C(F)F)o2)cn1)c1cccc(F)c1 [Compound 11217, N-((5-(5-(difluoromethyl)-1,3,4-oxadiazol-2-yl)pyridin-2-yl)methyl)-N-(3-fluorophenyl)methanesulfonamide]	7692	13
CS(=O)(=O)N(Cc1ccc(-c2nnc(C(F)(F)F)o2)cc1F)c1ccccc1C(F)(F)F [Compound 11218, N-(2-fluoro-4-(5-(trifluoromethyl)-1,3,4-oxadiazol-2-yl)benzyl)-N-(2-(trifluoromethyl)phenyl)methanesulfonamide]	429	233
CS(=O)(=O)N(Cc1ccc(-c2nnc(C(F)F)o2)cc1F)c1ccccc1C(F)(F)F [Compound 11219, N-(4-(5-(difluoromethyl)-1,3,4-oxadiazol-2-yl)-2-fluorobenzyl)-N-(2-(trifluoromethyl)phenyl)methanesulfonamide]	1064	94
CS(=O)(=O)N(Cc1ccc(-c2nnc(C(F)F)o2)cc1F)c1ccc(C(F)(F)F)cc1 [Compound 11221, N-(4-(5-(difluoromethyl)-1,3,4-oxadiazol-2-yl)-2-fluorobenzyl)-N-(4-(trifluoromethyl)phenyl)methanesulfonamide]	990	101
CCCCN(Cc1ccc(-c2nnc(C(F)(F)F)o2)cc1)S(C)(=O)=O [Compound 11222, N-butyl-N-(4-(5-(trifluoromethyl)-1,3,4-oxadiazol-2-yl)benzyl)methanesulfonamide]	243	412
